We go through 21 molecules from US20230103791A1 (GLAXOSMITHKLINE INTELLECTUAL PROPERTY DEVELOPMENT LIMITED, priority 2019, published 2023).

In the first assay the target is T1, human Nav1.8 (Homo sapiens, UniProt Q9Y5Y9).
T1 construct: expressed in transfected cells; host or cells: HEK293 (HEK293-Nav1.8)
T1 sequence (Q9Y5Y9 whole entry): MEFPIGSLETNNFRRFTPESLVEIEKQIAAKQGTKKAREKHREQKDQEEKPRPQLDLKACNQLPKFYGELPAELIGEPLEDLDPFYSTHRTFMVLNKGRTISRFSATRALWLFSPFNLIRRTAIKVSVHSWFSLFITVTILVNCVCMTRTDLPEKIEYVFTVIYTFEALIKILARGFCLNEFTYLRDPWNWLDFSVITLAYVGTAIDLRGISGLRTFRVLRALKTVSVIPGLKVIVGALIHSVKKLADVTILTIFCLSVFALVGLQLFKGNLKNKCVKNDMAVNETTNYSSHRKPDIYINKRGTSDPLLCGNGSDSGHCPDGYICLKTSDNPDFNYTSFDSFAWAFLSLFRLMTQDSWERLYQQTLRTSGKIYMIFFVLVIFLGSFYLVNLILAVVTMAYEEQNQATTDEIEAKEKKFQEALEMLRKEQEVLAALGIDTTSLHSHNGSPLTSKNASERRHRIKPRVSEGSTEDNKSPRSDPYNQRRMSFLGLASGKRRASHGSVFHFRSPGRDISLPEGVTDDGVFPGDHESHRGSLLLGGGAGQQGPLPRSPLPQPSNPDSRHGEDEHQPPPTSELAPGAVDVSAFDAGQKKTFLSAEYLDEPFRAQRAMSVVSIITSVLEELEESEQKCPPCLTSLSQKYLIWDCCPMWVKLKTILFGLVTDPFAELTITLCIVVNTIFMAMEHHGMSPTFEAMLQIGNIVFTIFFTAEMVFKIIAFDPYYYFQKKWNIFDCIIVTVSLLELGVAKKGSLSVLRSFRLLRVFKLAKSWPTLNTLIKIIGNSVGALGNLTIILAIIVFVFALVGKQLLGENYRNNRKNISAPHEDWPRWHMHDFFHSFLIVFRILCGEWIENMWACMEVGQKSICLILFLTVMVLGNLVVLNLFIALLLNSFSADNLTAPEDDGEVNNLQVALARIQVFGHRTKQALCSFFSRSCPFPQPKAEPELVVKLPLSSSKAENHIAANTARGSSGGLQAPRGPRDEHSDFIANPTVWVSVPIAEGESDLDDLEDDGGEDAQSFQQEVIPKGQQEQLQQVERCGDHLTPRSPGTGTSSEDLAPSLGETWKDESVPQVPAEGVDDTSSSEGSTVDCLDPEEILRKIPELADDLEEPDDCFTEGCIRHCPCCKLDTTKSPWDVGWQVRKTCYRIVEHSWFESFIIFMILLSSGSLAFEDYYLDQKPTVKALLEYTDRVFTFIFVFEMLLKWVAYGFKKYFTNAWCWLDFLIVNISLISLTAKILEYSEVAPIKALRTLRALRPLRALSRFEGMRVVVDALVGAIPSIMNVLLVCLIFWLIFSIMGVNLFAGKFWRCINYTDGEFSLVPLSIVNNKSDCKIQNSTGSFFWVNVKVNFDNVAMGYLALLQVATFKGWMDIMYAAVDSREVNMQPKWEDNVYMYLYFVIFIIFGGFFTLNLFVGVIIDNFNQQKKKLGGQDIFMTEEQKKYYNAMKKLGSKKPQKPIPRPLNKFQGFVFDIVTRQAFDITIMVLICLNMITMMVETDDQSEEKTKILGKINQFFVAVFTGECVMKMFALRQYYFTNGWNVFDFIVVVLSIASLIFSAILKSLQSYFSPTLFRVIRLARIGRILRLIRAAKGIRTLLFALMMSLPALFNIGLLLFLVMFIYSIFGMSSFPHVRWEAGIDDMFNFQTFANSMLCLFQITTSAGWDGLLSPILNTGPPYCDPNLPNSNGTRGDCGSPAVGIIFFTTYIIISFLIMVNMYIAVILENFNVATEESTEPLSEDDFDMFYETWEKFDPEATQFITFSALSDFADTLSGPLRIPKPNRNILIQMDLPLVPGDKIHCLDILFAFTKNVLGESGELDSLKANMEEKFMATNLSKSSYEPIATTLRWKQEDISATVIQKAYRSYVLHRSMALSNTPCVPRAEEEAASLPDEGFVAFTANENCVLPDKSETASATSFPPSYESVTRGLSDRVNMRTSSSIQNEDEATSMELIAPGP
T1 sequence (Q07699 19-218 partner): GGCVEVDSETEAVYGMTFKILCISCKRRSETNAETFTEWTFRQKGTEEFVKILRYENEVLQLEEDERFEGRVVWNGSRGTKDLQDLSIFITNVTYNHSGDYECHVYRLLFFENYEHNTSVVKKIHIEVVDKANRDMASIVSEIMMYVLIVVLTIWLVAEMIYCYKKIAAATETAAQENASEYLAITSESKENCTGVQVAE
The experiment in a line: Nav1.8 sodium channels assay, QPatch 48 HTX electrophysiology in HEK293-Nav1.8 cells. The assay is classed as cell-based. The conditions noted are these: Table 1; HEK293-Nav1.8, QPatch 48 HTX, half inactivation state voltage protocol (V1/2); single run or average of two or more runs; read-out: Nav1.8 pIC50 (converted). In short, it runs like this:
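IC50 came from 6-8 point curves of P2 current amplitude, normalized to baseline and a positive reference, and corrected for run-down using vehicle-only wells. Automated patch clamp used HEK293-Nav1.8 (with Navβ1 and TREK1) at pH 7.4 outside and CsF-based solution inside. An 8 s inactivating step at −46 mV preceded the 0 mV test pulse, repeated at 0.07 Hz.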
In general terms: The patch-clamp technique gives a direct electrical read-out from membranes.
As for `Cc1[nH]c(=O)ccc1N1CN(c2ccc(F)cc2C(C)C)c2cc(C(F)(F)F)ccc2C1=O` [drawing 290, 1-(4-fluoro-2-isopropylphenyl)-3-(2-methyl-6-oxo-1,6-dihydropyridin-3-yl)-7-(trifluoromethyl)-2,3-dihydroquinazolin-4(1H)-one], the IC50 is 6.31 nM. Same read-out and setting: for `Cc1cc(F)ccc1N1CN(c2ccc(=O)[nH]c2)C(=O)c2ccc(C(F)(F)F)c(Cl)c21` [drawing 282, 8-chloro-1-(4-fluoro-2-methylphenyl)-3-(6-oxo-1,6-dihydropyridin-3-yl)-7-(trifluoromethyl)-2,3-dihydroquinazolin-4(1H)-one] the value was 6310 nM.

The assay is the same for the next values; noted with them: at least one set of experimental runs; read-out: average pIC50 value against Nav1.8 (converted).
For the molecule `Cc1cc(F)ccc1N1CN(c2c(C)cc(=O)[nH]c2Br)C(=O)c2ccc(C(F)(F)F)cc21` [Example 211, 3-(2-bromo-4-methyl-6-oxo-1,6-dihydropyridin-3-yl)-1-(4-fluoro-2-methylphenyl)-7-(trifluoromethyl)-2,3-dihydroquinazolin-4(1H)-one], the IC50 was 794 to 7940 nM. Same read-out and setting: under `Cc1cc(F)ccc1N1CN(c2cn[nH]c2)C(=O)c2cc(C(F)(F)F)ccc21` [Example 18, 1-(4-fluoro-2-methylphenyl)-3-(1H-pyrazol-4-yl)-6-(trifluoromethyl)-2,3-dihydroquinazolin-4(1H)-one] stands 794 to 7940 nM; under `Cc1cc(F)ccc1N1CN(c2ccc(=O)[nH]c2C)C(=O)c2cc(Cl)cnc21` [Example 102, 6-chloro-1-(4-fluoro-2-methylphenyl)-3-(2-methyl-6-oxo-1,6-dihydropyridin-3-yl)-2,3-dihydropyrido[2,3-d]pyrimidin-4(1H)-one], 126 to 631 nM.

Consider `Cc1[nH]c(=O)ccc1N1CN(c2ccc(F)cc2C(C)C)c2ccc(C(F)(F)F)cc2C1=O` [Example 178, 1-(4-fluoro-2-isopropylphenyl)-3-(2-methyl-6-oxo-1,6-dihydropyridin-3-yl)-6-(trifluoromethyl)-2,3-dihydroquinazolin-4(1H)-one], for which the IC50 is ≤ 100 nM. `Cc1cc(F)ccc1N1CN(c2ccc(=O)[nH]c2C)C(=O)c2c(Cl)cccc21` [Example 88, 5-chloro-1-(4-fluoro-2-methylphenyl)-3-(2-methyl-6-oxo-1,6-dihydropyridin-3-yl)-2,3-dihydroquinazolin-4(1H)-one]: the IC50 is 126 to 631 nM. For the molecule `Cc1[nH]c(=O)ccc1N1CN(C23CC(C2)C3)c2cc(C(F)(F)F)ccc2C1=O` [Example 237, 1-(bicyclo[1.1.1]pentan-1-yl)-3-(2-methyl-6-oxo-1,6-dihydropyridin-3-yl)-7-(trifluoromethyl)-2,3-dihydroquinazolin-4(1H)-one], the IC50 was 794 to 7940 nM. Take `Cc1[nH]c(=O)ccc1N1CN(c2ccc(F)cc2C(C)C)c2nc(C(F)(F)F)ccc2C1=O` [Example 212, 1-(4-fluoro-2-isopropylphenyl)-3-(2-methyl-6-oxo-1,6-dihydropyridin-3-yl)-7-(trifluoromethyl)-2,3-dihydropyrido[2,3-d]pyrimidin-4(1H)-one]: the IC50 is ≤ 100 nM. The same measure, in the same setting: for `Cc1cc(F)ccc1N1CN(c2n[nH]c(=O)cc2C)C(=O)c2ccc(C(F)(F)F)cc21` [Example 20, 1-(4-fluoro-2-methylphenyl)-3-(4-methyl-6-oxo-1,6-dihydropyridazin-3-yl)-7-(trifluoromethyl)-2,3-dihydroquinazolin-4(1H)-one] the value was 794 to 7940 nM; for `CCc1cc(F)ccc1N1CN(c2ccc(=O)[nH]c2C)C(=O)c2cc(Cl)c(F)cc21` [Example 191, 6-chloro-1-(2-ethyl-4-fluorophenyl)-7-fluoro-3-(2-methyl-6-oxo-1,6-dihydropyridin-3-yl)-2,3-dihydroquinazolin-4(1H)-one], ≤ 100 nM; for `Cc1cc(F)ccc1N1CN(c2ccc(=O)[nH]c2C)C(=O)c2ccc(OCC(F)(F)F)cc21` [Example 230, 1-(4-fluoro-2-methylphenyl)-3-(2-methyl-6-oxo-1,6-dihydropyridin-3-yl)-7-(2,2,2-trifluoroethoxy)-2,3-dihydroquinazolin-4(1H)-one], ≤ 100 nM. Regarding `Cc1cc(N2CN(c3ccc(F)cc3C)c3cc(C(F)(F)F)ccc3C2=O)cc(=O)[nH]1` [Example 53, 1-(4-fluoro-2-methylphenyl)-3-(6-methyl-2-oxo-1,2-dihydropyridin-4-yl)-7-(trifluoromethyl)-2,3-dihydroquinazolin-4(1H)-one], the IC50 is 794 to 7940 nM. Same read-out and setting: under `CCc1[nH]c(=O)ccc1N1CN(c2ccc(F)cc2C)c2ccc(C(F)(F)F)cc2C1=O` [Example 64, 3-(2-ethyl-6-oxo-1,6-dihydropyridin-3-yl)-1-(4-fluoro-2-methylphenyl)-6-(trifluoromethyl)-2,3-dihydroquinazolin-4(1H)-one] stands ≤ 100 nM. Same read-out and setting: for `Cc1cc(F)ccc1N1CN(c2cc(=O)[nH]n2C)C(=O)c2ccc(C(F)(F)F)cc21` [Example 92, 1-(4-fluoro-2-methylphenyl)-3-(2-methyl-5-oxo-2,5-dihydro-1H-pyrazol-3-yl)-7-(trifluoromethyl)-2,3-dihydroquinazolin-4(1H)-one] the value was 126 to 631 nM. As to `Cc1cc(F)ccc1N1CN(c2ccc(=O)[nH]c2C2CC2)C(=O)c2ccc(C(F)(F)F)cc21` [Example 90, 3-(2-cyclopropyl-6-oxo-1,6-dihydropyridin-3-yl)-1-(4-fluoro-2-methylphenyl)-7-(trifluoromethyl)-2,3-dihydroquinazolin-4(1H)-one], the IC50 is ≤ 100 nM. Still for that read-out and setting: for `Cc1cc(F)ccc1N1CN(c2cc[nH]c(=O)c2C)C(=O)c2cc(C(F)(F)F)ccc21` [Example 238, 1-(4-fluoro-2-methylphenyl)-3-(3-methyl-2-oxo-1,2-dihydropyridin-4-yl)-6-(trifluoromethyl)-2,3-dihydroquinazolin-4(1H)-one] the value was 794 to 7940 nM; for `Cc1cc(F)ccc1N1CN(c2ccc(=O)[nH]c2C)Cc2cc(C(F)(F)F)ccc21` [Example 239, 5-(1-(4-fluoro-2-methylphenyl)-6-(trifluoromethyl)-1,4-dihydroquinazolin-3(2H)-yl)-6-methylpyridin-2(1H)-one], 126 to 631 nM. For `Cc1[nH]c(=O)ccc1N1CN([C@@H]2CCCC[C@H]2C)c2cc(C(F)(F)F)ccc2C1=O` (racemic) [Example 278, Mixture of 3-(2-Methyl-6-oxo-1,6-dihydropyridin-3-yl)-1-((1R,2R)-2-methylcyclohexyl)-7-(trifluoromethyl)-2,3-dihydroquinazolin-4(1H)-one and 3-(2-Methyl-6-oxo-1,6-dihydropyridin-3-yl)-1-((1S,2S)-2-methylcyclohexyl)-7-(trifluoromethyl)-2,3-dihydroquinazolin-4(1H)-one], the IC50 is ≤ 100 nM. The same measure, in the same setting: under `Cc1cc(F)ccc1N1CN(c2ccc(=O)[nH]c2C)C(=O)c2ccc(C3COC3)cc21` [Example 265, 1-(4-Fluoro-2-methylphenyl)-3-(2-methyl-6-oxo-1,6-dihydropyridin-3-yl)-7-(oxetan-3-yl)-2,3-dihydroquinazolin-4(1H)-one] stands 126 to 631 nM; under `Cc1[nH]c(=O)ccc1N1CN([C@H]2CCCC[C@@H]2C)c2cc(C(F)(F)F)ccc2C1=O` [Example 279, 3-(2-Methyl-6-oxo-1,6-dihydropyridin-3-yl)-1-((1S,2S)-2-methylcyclohexyl)-7-(trifluoromethyl)-2,3-dihydroquinazolin-4(1H)-one], ≤ 100 nM.
